Our source for the TGI values is PubChem BioAssay (NCI).

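Results reflect a 48-hour exposure of cells in 96-well plates to compound at five concentrations. Definition used: TGI = concentration required for complete inhibition of growth.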

Among the test systems are SF-295 CNS; CCRF-CEM leukemia; BT-549 breast; NCI-H226 lung; SK-OV-3 ovarian; NCI-H460 lung; SW-620 colon; HOP-92 NSCLC; HT29 colon; NCI-H23 lung; TK-10 renal; MOLT-4 leukemia; MALME-3M melanoma; SNB-19 CNS; T-47D breast; UACC-257 melanoma; 786-0 renal; NCI-H522 lung; UACC-62 melanoma.
Common to all, as to assay: growth of human tumour cells (NCI), 48 h

As to `COc1ccc(C2C3CCc4ccccc4C3=NN2S(=O)(=O)c2ccc(Cl)cc2)cc1` (stereo not given), the TGI is 50.9 µM in the test on SF-295 CNS; over 100 µM with CCRF-CEM leukemia; over 100 µM in the test with BT-549 breast; over 100 µM with NCI-H226 lung; 16 µM in the test with SK-OV-3 ovarian; over 100 µM in the test on NCI-H460 lung. Also, the TGI with SW-620 colon is over 100 µM; in the test with HOP-92 NSCLC, over 100 µM; in the test with HT29 colon it was 63.3 µM; in the test on NCI-H23 lung, over 100 µM; in the test with TK-10 renal, over 100 µM; in the test with MOLT-4 leukemia, over 100 µM. The TGI is over 100 µM in the test on MALME-3M melanoma; over 100 µM in the test with SNB-19 CNS; over 100 µM with T-47D breast; over 100 µM with UACC-257 melanoma; 66.6 µM in the test on 786-0 renal; 37.6 µM in the test with NCI-H522 lung. In the test with UACC-62 melanoma, the TGI is over 100 µM.

As for `CCN(CCCN(CC)C(=O)Nc1ccccc1)C(=O)Nc1ccccc1`, the TGI in the test with SF-295 CNS, in the test with CCRF-CEM leukemia, in the test with BT-549 breast, with NCI-H226 lung, with SK-OV-3 ovarian and in the test on NCI-H460 lung was over 100 µM in each case. Moreover, the TGI with SW-620 colon, in the test on HOP-92 NSCLC, with HT29 colon, in the test on NCI-H23 lung, in the test on TK-10 renal and in the test on MOLT-4 leukemia was over 100 µM in each case. In addition, the TGI in the test on MALME-3M melanoma, in the test with SNB-19 CNS, in the test with T-47D breast, in the test on UACC-257 melanoma, with 786-0 renal and in the test on NCI-H522 lung was over 100 µM in each case. Further, the TGI with UACC-62 melanoma was over 100 µM.

For `O=c1[nH]/c(=C/c2ccc(OCc3ccccc3)cn2)c(=O)[nH]/c1=C/c1ccc(Cl)cc1`, the TGI in the test with SF-295 CNS is 29.4 µM; with CCRF-CEM leukemia, over 100 µM; in the test on BT-549 breast it was over 100 µM; with NCI-H226 lung it was over 100 µM; with SK-OV-3 ovarian, over 100 µM; in the test with NCI-H460 lung, over 100 µM. The TGI is over 100 µM in the test on SW-620 colon; over 100 µM in the test on HOP-92 NSCLC; over 100 µM with HT29 colon; over 100 µM in the test with NCI-H23 lung; over 82.9 µM in the test on TK-10 renal; over 100 µM with MOLT-4 leukemia. The TGI in the test on MALME-3M melanoma was over 100 µM; in the test with SNB-19 CNS it was over 100 µM; in the test on T-47D breast, over 100 µM; in the test with UACC-257 melanoma it was over 100 µM; in the test with 786-0 renal it was over 100 µM; in the test on NCI-H522 lung, over 84.9 µM. The TGI in the test with UACC-62 melanoma is over 100 µM.

Turning to `c1ccc(-c2ccc(-c3cc4ccccc4[nH]3)cc2)cc1`, the TGI with SF-295 CNS, in the test with CCRF-CEM leukemia, in the test with BT-549 breast, with NCI-H226 lung, in the test on SK-OV-3 ovarian and in the test on NCI-H460 lung was over 100 µM each time. Besides, the TGI in the test with SW-620 colon, in the test on HOP-92 NSCLC, in the test with HT29 colon, in the test with NCI-H23 lung, in the test on TK-10 renal and with MOLT-4 leukemia was over 100 µM throughout. Besides, the TGI with MALME-3M melanoma, with SNB-19 CNS, with T-47D breast, in the test on UACC-257 melanoma, with 786-0 renal and in the test with NCI-H522 lung was over 100 µM throughout. The same compound gave a TGI in the test with UACC-62 melanoma of over 100 µM.

Take `CCCCCCCCCCCCCCCCCCNc1ccn(C2OC(CO)C(O)C2O)c(=O)n1` (stereo not given): the TGI was over 100 µM in the test on SF-295 CNS; 30.4 µM in the test with CCRF-CEM leukemia; over 100 µM in the test on BT-549 breast; over 100 µM in the test with NCI-H226 lung; over 100 µM in the test on SK-OV-3 ovarian; over 100 µM in the test with NCI-H460 lung. Moreover, the TGI in the test on SW-620 colon is over 100 µM; in the test on HOP-92 NSCLC it was over 100 µM; in the test with HT29 colon, over 100 µM; with NCI-H23 lung, over 100 µM; in the test with TK-10 renal, over 100 µM; in the test with MOLT-4 leukemia, over 49.7 µM. The TGI in the test with MALME-3M melanoma, with SNB-19 CNS, in the test on T-47D breast, in the test with UACC-257 melanoma, in the test on 786-0 renal and in the test with NCI-H522 lung was over 100 µM throughout. Also, the TGI in the test on UACC-62 melanoma is over 100 µM.
